We go through 1 molecule from ChEMBL document CHEMBL3098074, “Synthesis and tumor cell growth inhibitory activity of biotinylated annonaceous acetogenins” (Eur J Med Chem, 2014).

Assay [1] deals with P815. Nature of the assay: Cytotoxicity against mouse P815 cells expressing biotin receptor after 72 hrs by MTT assay. The format is functional, cell-based. The note with it: P815, 72 h. A general note: Formazan colour is commonly taken as a measure of viable cells.
The nature of assay [2]: Antitumor activity against mouse HepS cells xenografted in mouse assessed as tumor growth inhibition at 30 ug/kg. The format is functional. The note with it: read-out: TGI.
Assay [3] relates to L1210. Kind of assay: Selectivity index, ratio of IC50 for mouse L1210 cells to IC50 for mouse 4T1 cells. The format is functional.
Assay [4] has as its system L1210. Kind of assay: Cytotoxicity against mouse L1210 cells after 72 hrs by MTT assay. Type of assay: functional, cell-based. The conditions noted are these: L1210, 72 h.
The subject of assay [5] is 4T1. Kind of assay: Cytotoxicity against mouse 4T1 cells expressing biotin receptor after 72 hrs by MTT assay. The note with it: 4T1, 72 h. The format is functional, cell-based.
The subject of assay [6] is L1210. Kind of assay: Selectivity index, ratio of IC50 for mouse L1210 cells to IC50 for mouse P815 cells. Type of assay: functional.

SMILES strings stand for the structures.

Consider `CCCCCC[C@H](O)CCC[C@H](O)[C@H]1CC[C@H]([C@H]2CC[C@H]([C@H](O)CCCCCCCCCCCCC3=C[C@H](C)OC3=O)O2)O1` [SQUAMOCIN], for which the results for the IC50 in assay [1], in assay [4] and in assay [5] were 19.8 µM, 1.35 µM and 0.36 µM, respectively. Also, in assay [2], the inhibition in vivo at 0.03 mg/kg came to 78%. Moreover, the results for the “Ratio IC50” value in assay [3] and in assay [6] were 3.75 and 0.068, respectively.
